Legend:
3T3-F442A adipocytes = assay: Leptin secretion by murine 3T3-F442A adipocytes in culture (ELISA on supernatants); type: cell-based, mouse; conditions: for increase in the secretion of leptin / stimulation of the leptin secretion: D21, versus control; for leptin (pg/mL) Average in culture supernatants: mature 3T3-F442A adipocytes, control 1510
Protocol: The principle of the test is to control the secretion of leptin by the adipocytes.
Culture of 3T3 F442A Cells
The 3T3 F442A preadipocytes are shown at D0 in 35 mm Petri dishes (Corning) and placed in an oven at 37° C. under an air-CO2 atmosphere (95-5). The cells are cultivated in an Eagle minimum essential medium modified according to Dulbecco (glucose 4.50 g/l) (DMEM-GIBCO BRL) supplemented with 5% of calf serum (CS) (BIOMEDIA®) and 5% of foetal calf serum (GIBCO) during the growth phase. The medium is changed at D2 and D4.
At the cell confluence (at D7), the medium is changed:
The basic medium remains the same (DMEM) but is supplemented with 10% of foetal calf serum (FCS) and insulin (5 μg/mL) (SIGMA).
The medium is then changed at D9 and D11.
At D14, D16 and D18, a treatment is made with the composition the effectiveness of which on the leptin synthesis it is sought to verify.
The leptin secreted is determined by means of a sandwich-type Elisa technique re-running with a Quantikine M Mouse Leptin Immunoassay kit.
This ELISA determination uses recombined mouse leptin, expressed in E. coli and antibodies directed against recombinant mouse leptin.
The test uses a “sandwich” immunoenzymatic technique. The microplate wells are lined with a mouse leptin polyclonal antibody.
The standards, controls and samples are deposited in the wells and, at the same moment, all the leptin present binds to the immobilised antibody.
The bound leptin is then detected by a mouse anti-leptin antibody which is coupled to an enzyme peroxidase. A substrate solution is then added into the wells. The enzymatic reaction leads to a blue solution which turns yellow after addition of a quenching solution.
The intensity of the colour measured is proportional to the amount of leptin present. The reading of the optical density is done at 450 nm on the spectrophotometer.
The determination is obtained afterwards of the dose-response curves in relation to the measurement of natural leptin, parallel to the standard curves obtained with “recombinant” Quantikine M standards. The Quantikine M kit thus enables the relative mass values for the natural mouse leptin to be determined.
The optical density measured at 450 nm is proportional to the amount of antibody fixed, which is itself proportional to the amount of leptin present initially. The results are expressed in pg/mL of leptin present in the cell supernatants.
The samples were tested in triplicate.
Three compositions containing 0.25, 1 and 2 μg/mL, respectively, of phytosphingosine or of its hydrochloride, were tested.

[1] = tested on: glycerol-3-phosphate dehydrogenase (G3PDH); assay: G3PDH activity (lipogenesis) in 3T3 F442A preadipocytes treated with media conditioned by treated mature adipocytes; type: cell-based, mouse; conditions: 8 days, control 0.0016
Text: Thus, the mature adipocytes are firstly treated with PB+PS Secondly, the culture medium which is conditioned with these adipocytes is placed in contact with preadipocytes the maturation of which into adipocytes will be followed. A key enzyme in the process of synthesis of triglycerides is glycerol-3-phosphate dehydrogenase (G3PDH): its specific activity increases considerably during maturation and can thus be used as a precise and sensitive measurement of adipocyte conversion (Pairault J., Green H., Proc. Nat. Acad. Sci. USA, (1979) 76, 5138-42; Koekemoer T. C. et al, Int. J. Biochem. Cell Biol. (1995) 27, 625-32). […] Since G3PDH is a hydrosoluble enzyme, its activity is measured in the supernatant of the cell grindings, in the presence of appropriate substrates (NADH, TEA (triethanolamine)-EDTA, 50 mM, 1 mM). The specific activity is calculated from these determinations. […] Then, the percentage inhibition is calculated of the inhibition of the activity of the G3PDH produced by the substances compared to the controls. […] The consumption of NADH as a function of time is measured by spectrophotometry (KONTRON) at 340 nm. An absorbance variation/minute (Δ Abs/minute) can thus be calculated which corresponds to the initial rate of the enzymatic reaction. […] The total protein content is evaluated by the BCA method (Protein Assay Reagent-PIERCE LTD)

human adipocytes [2] = assay: Release of glycerol by human adipocytes in culture (lipolysis); type: cell-based; conditions: for glycerol (pg/mL) release: 25 μg/mL
Text: Human adipocytes originating from a plasty of a person, which are marketed by ZEN-BIO (USA), were used at an advanced stage of the adipocyte maturation. The reception of these cells in culture took place 16 days after sowing. […] The properties of Coleus described above for the 3T3F442A murine adipocytes were first of all verified on these human cells: lipolytic activity by measurement of the release of glycerol and non-esterified fatty acids.

human adipocytes [3] = assay: Release of non-esterified fatty acids by human adipocytes in culture; type: cell-based; conditions: dose of 6 ng/mL
Text: (§1) Human adipocytes originating from a plasty of a person, which are marketed by ZEN-BIO (USA), were used at an advanced stage of the adipocyte maturation. The reception of these cells in culture took place 16 days after sowing. They are cultivated in a specific medium ensuring their differentiation throughout the whole treatment. • D-16: sowing • D0: start of the treatment with the extract of Coleus (PB) and/or phytosphingosine (PS) • D6 to D18: determination of the various parameters. The properties of Coleus described above for the 3T3F442A murine adipocytes were first of all verified on these human cells: lipolytic activity by measurement of the release of glycerol and non-esterified fatty acids.

human adipocytes [4] = assay: Leptin secretion by human adipocytes in culture; type: cell-based; conditions: most effective doses lower than for murine adipocytes
Text: as §1, with “parameters.” for “parameters. The properties of Coleus described above for the 3T3F442A murine adipocytes were first of all verified on these human cells: lipolytic activity by measurement of the release of glycerol and non-esterified fatty acids.”

[5] = 0.25 μg/mL, day D21 (7 days of treatment)

| SMILES | increase in the secretion of leptin (3T3-F442A adipocytes; 0.25 μg/mL) | leptin (pg/mL) Average in culture supernatants (3T3-F442A adipocytes; [5]) [pg/mL] | leptin (pg/mL) Average in culture supernatants (3T3-F442A adipocytes; 1 μg/mL, day D21) [pg/mL] | leptin (pg/mL) Average in culture supernatants (3T3-F442A adipocytes; 2 μg/mL, day D21) [pg/mL] | O.D. (nmoles NAD+) average ([1]; PB 0, PS 0.5 μg/mL) [nmoles NAD+] | O.D. (nmoles NAD+) average ([1]; PB 0, PS 1 μg/mL) [nmoles NAD+] | glycerol (pg/mL) release (human adipocytes [2]; day 3, control 73.78) [pg/mL] | glycerol (pg/mL) release (human adipocytes [2]; day 6, control 120.8) [pg/mL] | glycerol (pg/mL) release (human adipocytes [2]; day 9, control 147.2) [pg/mL] | glycerol (pg/mL) release (human adipocytes [2]; day 12, control 198.4) [pg/mL] | glycerol (pg/mL) release (human adipocytes [2]; day 15, control 196.3) [pg/mL] | glycerol (pg/mL) release (human adipocytes [2]; day 18, control 230.9) [pg/mL] | glycerol (pg/mL) release (human adipocytes [2]; day 21, control 276.6) [pg/mL] | glycerol (pg/mL) release (human adipocytes [2]; day 23, control 238.9) [pg/mL] | release of glycerol (human adipocytes [2]; dose of 6 ng/mL) | release of non-esterified fatty acids (human adipocytes [3]) | leptin secretion in human adipocytes (human adipocytes [4]) | stimulation of the leptin secretion (3T3-F442A adipocytes; 1 μg/mL) | stimulation of the leptin secretion (3T3-F442A adipocytes; 2 μg/mL) |
| --- | --- | --- | --- | --- | --- | --- | --- | --- | --- | --- | --- | --- | --- | --- | --- | --- | --- | --- | --- |
| CCCCCCCCCCCCCCC(O)C(O)[C@@H](N)CO (stereo in doubt) [phytosphingosine, (2S,3S,4R)-2-amino-1,3,4-octadecanetriol] | more than 18% | 1789 | 1563.6 | 1428.8 | 0.0014 | 0.00165 | 174.4 | 196.2 | 302.9 | 416.4 | 460.6 | 659.8 | 777.1 | 687 | responsible for a release of glycerol with time | without concomitant release of non-esterified fatty acids | induces an increase of leptin secretion | – | – |
| CCCCCCCCCCCCCC[C@@H](O)[C@@H](O)[C@@H](N)CO.Cl [Phytosphingosine hydrochloride] | +18% | 1789 | 2301.3 | 1907.9 | – | – | – | – | – | – | – | – | – | – | – | – | – | +52% | +26% |
